According to patent US20100280035A1, “SOLID PHARMACEUTICAL COMPOSITION COMPRISING 1-(4-CHLOROANILINO)-4-(4-PYRIDYLMETHYL)PHTHALAZINE AND A PH MODIFIER” (priority 2005, published 2010):

Test: Permeability of the Agent in the small intestine

**Q.** Which permeability does the source give for Clc1ccc(Nc2nnc(Cc3ccncc3)c3ccccc23)cc1.O=C(O)CCC(=O)O [Agent, 1-(4-chloroanilino)-4-(4-pyridylmethyl)phthalazine succinate] here?
**A.** Its permeability is “good”.
